#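 Following 48 hours of exposure in 96-well plates, responses at five concentrations were used to interpolate endpoints linearly. The concentration for full growth arrest is given as TGI.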
# Key:
# Test in all cases: NCI anticancer screen, dose series, 48 h
# MCF7 breast = system: MCF7 breast
# 786-0 renal = system: 786-0 renal
# KM12 colon = system: KM12 colon
# M19-MEL melanoma = system: M19-MEL melanoma
# HT29 colon = system: HT29 colon
# MDA-MB-435 = system: MDA-MB-435
# PC-3 prostate = system: PC-3 prostate
# HS 578T breast = system: HS 578T breast
# HOP-62 NSCLC = system: HOP-62 NSCLC
# NCI/ADR-RES ovarian = system: NCI/ADR-RES ovarian
# SF-295 CNS = system: SF-295 CNS
# M14 melanoma = system: M14 melanoma
# NCI-H23 lung = system: NCI-H23 lung
# SNB-78 CNS = system: SNB-78 CNS
# DMS 273 small cell lung = system: DMS 273 small cell lung
# UACC-62 melanoma = system: UACC-62 melanoma
# LXFL 529 NSCLC = system: LXFL 529 NSCLC
# UACC-257 melanoma = system: UACC-257 melanoma
# A498 renal = system: A498 renal
# NCI-H522 lung = system: NCI-H522 lung
# OVCAR-3 ovarian = system: OVCAR-3 ovarian
# SK-MEL-2 melanoma = system: SK-MEL-2 melanoma
# ACHN renal = system: ACHN renal
# LOX IMVI melanoma = system: LOX IMVI melanoma
# HCC-2998 colon = system: HCC-2998 colon
# TK-10 renal = system: TK-10 renal
# DMS 114 small cell lung = system: DMS 114 small cell lung
# NCI-H226 lung = system: NCI-H226 lung
# SK-OV-3 ovarian = system: SK-OV-3 ovarian
# SNB-19 CNS = system: SNB-19 CNS
# MALME-3M melanoma = system: MALME-3M melanoma
# T-47D breast = system: T-47D breast
# OVCAR-4 ovarian = system: OVCAR-4 ovarian
# HCT-116 colon = system: HCT-116 colon
# OVCAR-8 ovarian = system: OVCAR-8 ovarian
# BT-549 breast = system: BT-549 breast
# NCI-H460 lung = system: NCI-H460 lung
# COLO 205 colon = system: COLO 205 colon
# MDA-N = system: MDA-N
# HOP-18 NSCLC = system: HOP-18 NSCLC
# HCT-15 colon = system: HCT-15 colon
# DLD-1 colon = system: DLD-1 colon
# SN12C renal = system: SN12C renal
# DU-145 prostate = system: DU-145 prostate
# RPMI-8226 leukemia = system: RPMI-8226 leukemia
# SR leukemia = system: SR leukemia
# CCRF-CEM leukemia = system: CCRF-CEM leukemia
# SNB-75 CNS = system: SNB-75 CNS
# U251 CNS = system: U251 CNS
# RXF-631 renal = system: RXF-631 renal
# A549 NSCLC = system: A549 NSCLC
# HL-60(TB) leukemia = system: HL-60(TB) leukemia
# KM20L2 colon = system: KM20L2 colon
# IGROV1 ovarian = system: IGROV1 ovarian
# SF-539 CNS = system: SF-539 CNS
# MDA-MB-231 breast = system: MDA-MB-231 breast
# HOP-92 NSCLC = system: HOP-92 NSCLC
# K-562 leukemia = system: K-562 leukemia
# MOLT-4 leukemia = system: MOLT-4 leukemia
# SK-MEL-5 melanoma = system: SK-MEL-5 melanoma
# SW-620 colon = system: SW-620 colon
# RXF 393 renal = system: RXF 393 renal
# SF-268 CNS = system: SF-268 CNS
# UO-31 renal = system: UO-31 renal
# EKVX NSCLC = system: EKVX NSCLC
# OVCAR-5 ovarian = system: OVCAR-5 ovarian
# CAKI-1 renal = system: CAKI-1 renal
# SK-MEL-28 melanoma = system: SK-MEL-28 melanoma
smiles,measurement,setting,value
CN1CCN(Cc2nc3cccc4c3c([n+]2[O-])-c2ccccc2-4)CC1,TGI,MCF7 breast,84.9 µM
same,TGI,786-0 renal,> 100 µM
same,TGI,KM12 colon,> 66 µM
same,TGI,M19-MEL melanoma,> 100 µM
same,TGI,HT29 colon,> 61.1 µM
same,TGI,MDA-MB-435,34 µM
same,TGI,PC-3 prostate,48.6 µM
same,TGI,HS 578T breast,97.1 µM
same,TGI,HOP-62 NSCLC,> 100 µM
same,TGI,NCI/ADR-RES ovarian,48.3 µM
same,TGI,SF-295 CNS,> 100 µM
same,TGI,M14 melanoma,> 61.1 µM
same,TGI,NCI-H23 lung,> 61.7 µM
same,TGI,SNB-78 CNS,> 100 µM
same,TGI,DMS 273 small cell lung,> 100 µM
same,TGI,UACC-62 melanoma,> 56.4 µM
same,TGI,LXFL 529 NSCLC,> 100 µM
same,TGI,UACC-257 melanoma,> 64.1 µM
same,TGI,A498 renal,> 53.1 µM
same,TGI,NCI-H522 lung,> 48.5 µM
same,TGI,OVCAR-3 ovarian,> 100 µM
same,TGI,SK-MEL-2 melanoma,> 54.3 µM
same,TGI,ACHN renal,> 68.7 µM
same,TGI,LOX IMVI melanoma,> 51.5 µM
same,TGI,HCC-2998 colon,> 100 µM
same,TGI,TK-10 renal,> 100 µM
same,TGI,DMS 114 small cell lung,> 100 µM
same,TGI,NCI-H226 lung,> 68.1 µM
same,TGI,SK-OV-3 ovarian,> 100 µM
same,TGI,SNB-19 CNS,> 100 µM
same,TGI,MALME-3M melanoma,> 50.2 µM
same,TGI,T-47D breast,76.9 µM
same,TGI,OVCAR-4 ovarian,> 84.4 µM
same,TGI,HCT-116 colon,> 100 µM
same,TGI,OVCAR-8 ovarian,37.3 µM
same,TGI,BT-549 breast,> 100 µM
same,TGI,NCI-H460 lung,> 100 µM
same,TGI,COLO 205 colon,> 59.7 µM
same,TGI,MDA-N,> 100 µM
same,TGI,HOP-18 NSCLC,> 100 µM
same,TGI,HCT-15 colon,> 100 µM
same,TGI,DLD-1 colon,> 100 µM
same,TGI,SN12C renal,> 100 µM
same,TGI,DU-145 prostate,32.1 µM
same,TGI,RPMI-8226 leukemia,> 74.4 µM
same,TGI,SR leukemia,31.8 µM
same,TGI,CCRF-CEM leukemia,> 82.8 µM
same,TGI,SNB-75 CNS,66.6 µM
same,TGI,U251 CNS,> 64 µM
same,TGI,RXF-631 renal,> 100 µM
same,TGI,A549 NSCLC,> 51.3 µM
same,TGI,HL-60(TB) leukemia,> 100 µM
same,TGI,KM20L2 colon,> 100 µM
same,TGI,IGROV1 ovarian,> 84.2 µM
same,TGI,SF-539 CNS,> 88 µM
same,TGI,MDA-MB-231 breast,44.3 µM
same,TGI,HOP-92 NSCLC,> 73.7 µM
same,TGI,K-562 leukemia,> 100 µM
same,TGI,MOLT-4 leukemia,> 69.4 µM
same,TGI,SK-MEL-5 melanoma,49.9 µM
same,TGI,SW-620 colon,> 100 µM
same,TGI,RXF 393 renal,25.9 µM
same,TGI,SF-268 CNS,> 66.5 µM
same,TGI,UO-31 renal,66.4 µM
same,TGI,EKVX NSCLC,> 100 µM
same,TGI,OVCAR-5 ovarian,> 100 µM
same,TGI,CAKI-1 renal,96.9 µM
same,TGI,SK-MEL-28 melanoma,> 62.6 µM
O=C1C2=C(C(c3ccccc3)=C1c1ccccc1)c1ccccc1C1(c3ccccc3)C2=C(O)C(c2ccccc2)=C1c1ccccc1 (configuration not stated),TGI,786-0 renal,> 100 µM
same,TGI,KM12 colon,> 100 µM
same,TGI,M19-MEL melanoma,> 100 µM
same,TGI,HT29 colon,> 100 µM
same,TGI,HOP-62 NSCLC,> 100 µM
same,TGI,SF-295 CNS,> 100 µM
same,TGI,M14 melanoma,> 100 µM
same,TGI,NCI-H23 lung,> 100 µM
same,TGI,SNB-78 CNS,> 100 µM
same,TGI,DMS 273 small cell lung,> 100 µM
same,TGI,UACC-62 melanoma,> 100 µM
same,TGI,LXFL 529 NSCLC,> 100 µM
same,TGI,UACC-257 melanoma,> 100 µM
same,TGI,A498 renal,> 100 µM
same,TGI,NCI-H522 lung,> 100 µM
same,TGI,OVCAR-3 ovarian,> 100 µM
same,TGI,SK-MEL-2 melanoma,> 100 µM
same,TGI,ACHN renal,> 100 µM
same,TGI,LOX IMVI melanoma,> 100 µM
same,TGI,HCC-2998 colon,> 100 µM
same,TGI,TK-10 renal,> 100 µM
same,TGI,DMS 114 small cell lung,> 100 µM
same,TGI,NCI-H226 lung,> 100 µM
same,TGI,SK-OV-3 ovarian,> 100 µM
same,TGI,MALME-3M melanoma,> 100 µM
same,TGI,OVCAR-4 ovarian,> 100 µM
same,TGI,HCT-116 colon,> 100 µM
same,TGI,OVCAR-8 ovarian,> 100 µM
same,TGI,NCI-H460 lung,> 100 µM
same,TGI,COLO 205 colon,> 100 µM
same,TGI,HOP-18 NSCLC,> 100 µM
same,TGI,HCT-15 colon,> 100 µM
same,TGI,DLD-1 colon,> 100 µM
same,TGI,SN12C renal,> 100 µM
same,TGI,RPMI-8226 leukemia,> 100 µM
same,TGI,SR leukemia,> 100 µM
same,TGI,SNB-75 CNS,> 100 µM
same,TGI,U251 CNS,> 100 µM
same,TGI,RXF-631 renal,> 100 µM
same,TGI,A549 NSCLC,> 100 µM
same,TGI,HL-60(TB) leukemia,> 100 µM
same,TGI,KM20L2 colon,> 100 µM
same,TGI,IGROV1 ovarian,> 100 µM
same,TGI,SF-539 CNS,> 100 µM
same,TGI,HOP-92 NSCLC,> 100 µM
same,TGI,MOLT-4 leukemia,> 100 µM
same,TGI,SK-MEL-5 melanoma,> 100 µM
same,TGI,SW-620 colon,> 100 µM
same,TGI,RXF 393 renal,> 100 µM
same,TGI,SF-268 CNS,> 100 µM
same,TGI,UO-31 renal,> 100 µM
same,TGI,EKVX NSCLC,> 100 µM
same,TGI,OVCAR-5 ovarian,> 100 µM
same,TGI,CAKI-1 renal,> 100 µM
same,TGI,SK-MEL-28 melanoma,> 100 µM
CN(C)C(=S)/N=c1\ssc(=Nc2ccccc2)n1C,TGI,786-0 renal,> 100 µM
same,TGI,KM12 colon,> 100 µM
same,TGI,M19-MEL melanoma,> 100 µM
same,TGI,HT29 colon,> 100 µM
same,TGI,HOP-62 NSCLC,> 100 µM
same,TGI,SF-295 CNS,> 100 µM
same,TGI,M14 melanoma,> 100 µM
same,TGI,NCI-H23 lung,> 100 µM
same,TGI,SNB-78 CNS,> 100 µM
same,TGI,DMS 273 small cell lung,> 100 µM
same,TGI,UACC-62 melanoma,> 100 µM
same,TGI,LXFL 529 NSCLC,> 100 µM
same,TGI,UACC-257 melanoma,> 100 µM
same,TGI,A498 renal,> 100 µM
same,TGI,SK-MEL-2 melanoma,> 100 µM
same,TGI,ACHN renal,> 100 µM
same,TGI,LOX IMVI melanoma,> 100 µM
same,TGI,HCC-2998 colon,> 100 µM
same,TGI,TK-10 renal,> 100 µM
same,TGI,DMS 114 small cell lung,> 100 µM
same,TGI,NCI-H226 lung,> 100 µM
same,TGI,SK-OV-3 ovarian,> 100 µM
same,TGI,SNB-19 CNS,> 100 µM
same,TGI,MALME-3M melanoma,> 100 µM
same,TGI,OVCAR-4 ovarian,> 100 µM
same,TGI,HCT-116 colon,> 100 µM
same,TGI,OVCAR-8 ovarian,> 100 µM
same,TGI,NCI-H460 lung,> 100 µM
same,TGI,HOP-18 NSCLC,> 100 µM
same,TGI,HCT-15 colon,> 100 µM
same,TGI,DLD-1 colon,> 100 µM
same,TGI,SN12C renal,> 100 µM
same,TGI,RPMI-8226 leukemia,> 100 µM
same,TGI,SR leukemia,> 100 µM
same,TGI,CCRF-CEM leukemia,> 100 µM
same,TGI,SNB-75 CNS,44.7 µM
same,TGI,U251 CNS,> 100 µM
same,TGI,RXF-631 renal,> 100 µM
same,TGI,A549 NSCLC,> 100 µM
same,TGI,HL-60(TB) leukemia,> 100 µM
same,TGI,KM20L2 colon,> 100 µM
same,TGI,IGROV1 ovarian,> 100 µM
same,TGI,SF-539 CNS,> 100 µM
same,TGI,HOP-92 NSCLC,> 100 µM
same,TGI,K-562 leukemia,> 100 µM
same,TGI,MOLT-4 leukemia,> 100 µM
same,TGI,SW-620 colon,> 100 µM
same,TGI,RXF 393 renal,> 100 µM
same,TGI,SF-268 CNS,> 100 µM
same,TGI,UO-31 renal,> 100 µM
same,TGI,EKVX NSCLC,> 100 µM
same,TGI,OVCAR-5 ovarian,> 100 µM
same,TGI,CAKI-1 renal,> 100 µM
same,TGI,SK-MEL-28 melanoma,> 100 µM
